Assay results taken from US20190255091A1, “RNAi AGENTS FOR [sequence] B VIRUS INFECTION” (priority 2016, published 2019).
“And” between values parts separate entries of the source, which are not always exact repeats. Identical values can stand only once.

What was measured:
[1] = system: HBV genotype C; assay: Serum HBsAg levels in HBV-infected humanized FRG model mice; assay type: in vivo; conditions: Group A: daily oral 0.01 mg/kg Entecavir, PBS (no RNAi agent), individual mouse
Excerpt: (§1) For this study, Male FRG® (genotype Fah−/−/Rag2−/−/Il2rg−/− triple knockout mice on a C57BL/6 background (Yecuris) were transplanted with human hepatocytes when they were 1-2 months old. The human hepatocytes were allowed to repopulate the liver for approximately 6 months with periodic NTBC treatment to discourage growth of mouse hepatocytes. At 9 months of age the mice were given an intravenous inoculation of 4×10^8 genomes/kg HBV genotype C, which infected the human hepatocytes. After 2-3 months, serum HBV DNA levels reached a plateau indicating the human hepatocytes were maximally infected (mouse hepatocytes cannot be infected by HBV). Mice were one year old at the start of treatment with HBV RNAi agents, thus nearing the end of their life span.
(§2) Pre-treatment serum samples were taken on day −10 and day −3. Beginning on day 1, each mouse was administered an oral daily gavage with 0.01 mg/kg Entecavir dissolved in water to inhibit HBV replication. Daily dosing of Entecavir continued until the day mice were euthanized. Entecavir administration was expected to reduce serum HBV DNA in chronically infected human patients, but not reduce HBsAg.
(§3) Each mouse was also given a subcutaneous administration of 100 μl per 20 grams body weight containing the amount of HBV RNAi agent(s) formulated in phosphate buffered saline, or an equal volume of phosphate buffered saline without an HBV RNAi agent, on day 1 and on day 29 (if still alive on day 29), pursuant to the schedule as set forth in Table 47, directly above. […] The injections were performed between the skin and muscle (i.e. subcutaneous injections) into the loose skin over the neck and shoulder area.
Serum was collected on day 8, day 15, day 22, day 29, day 36, and day 40 and serum Hepatitis B surface antigen (HBsAg) levels were determined pursuant to the procedure set forth in Example 2, above.

[2] = system: HBV genotype C; assay: Serum HBV DNA levels in HBV-infected humanized FRG model mice; assay type: in vivo
Excerpt: as §1, §2, §3
Additionally, serum HBV DNA levels were determined from serum samples collected on days −10, −3, 8, 15, 22, 29, 36, and 40, pursuant to the procedure set forth in Example 2, above.

SMILES: C=C1[C@H](CO)[C@@H](O)C[C@@H]1n1cnc2c(=O)[nH]c(N)nc21 [Entecavir]
- HBsAg levels normalized to pre-treatment (day −3), Day 8 ([1]; Day 8): 0.830 and 1.303
- HBsAg levels normalized to pre-treatment (day −3), Day 15 ([1]; Day 15): 0.828 and 1.328
- HBsAg levels normalized to pre-treatment (day −3), Day 22 ([1]; Day 22): 0.932
- HBsAg levels normalized to pre-treatment (day −3), Day 29 ([1]; Day 29): 0.858
- HBsAg levels normalized to pre-treatment (day −3), Day 36 ([1]; Day 36): 1.107
- viral replication (serum HBV DNA) ([2]; Example 18, 0.01 mg/kg oral daily gavage, absence and presence of HBV RNAi agents): reduced viral replication
- Serum HBV DNA levels normalized to the average of pre-treatment day −10 and day −3, Day 8 ([2]; Group A: daily oral 0.01 mg/kg Entecavir, PBS (no RNAi agent), individual mouse, Day 8): 0.072 and 0.130
- Serum HBV DNA levels normalized to the average of pre-treatment day −10 and day −3, Day 15 ([2]; Group A: daily oral 0.01 mg/kg Entecavir, PBS (no RNAi agent), individual mouse, Day 15): 0.038 and 0.075
- Serum HBV DNA levels normalized to the average of pre-treatment day −10 and day −3, Day 22 ([2]; Group A: daily oral 0.01 mg/kg Entecavir, PBS (no RNAi agent), individual mouse, Day 22): 0.015
- Serum HBV DNA levels normalized to the average of pre-treatment day −10 and day −3, Day 29 ([2]; Group A: daily oral 0.01 mg/kg Entecavir, PBS (no RNAi agent), individual mouse, Day 29): 0.027
- Serum HBV DNA levels normalized to the average of pre-treatment day −10 and day −3, Day 36 ([2]; Group A: daily oral 0.01 mg/kg Entecavir, PBS (no RNAi agent), individual mouse, Day 36): 0.060
